Source: ChEMBL document CHEMBL6092155, “211At radiolabeled APBA-FAPI for enhanced targeted-alpha therapy of glioma” (Eur J Med Chem, 2024)
Activity calls are given as the source filed them. The calls are words filed in the database; no cut-off is given here.

Legend:
[1] = Drug uptake in human FAPalpha-positive U-87 MG cells incubated for 120 min by gamma counter analysis relative to control; assay type: ADME, cell-based; conditions: u-87mg atcc, 2 h
[2] = Drug uptake in mouse FAPalpha-negative 4T1 cells incubated for 120 min by gamma counter analysis relative to control; assay type: ADME, cell-based; conditions: 4t1, 2 h
[3] = Octanol/[…] partition coefficient, log P of the compound; assay type: physicochemical
[4] = Stability of the compound in fetal bovine serum incubated for 3 to 24 hrs by RCP analysis (Del); assay type: ADME, cell-free; conditions: cattle, time 3-24 hrs
[5] = Drug penetration in human FAPalpha-positive U-87 MG cells assessed as blood brain barrier translocation rate incubated upto 4 hrs by invitro BBB assay (reference value: 0.54+/-0.12%); assay type: ADME, cell-based; conditions: u-87mg atcc
[6] = Drug uptake in human FAPalpha-negative MCF7 cells incubated for 120 min by gamma counter analysis relative to control; assay type: ADME, cell-based; conditions: mcf7, 2 h
[7] = Stability of the compound in fetal bovine serum assessed as radiochemical purity (RCP) incubated for 3 to 24 hrs relative to control; assay type: ADME, cell-free, Bos taurus; conditions: cattle, time 3-24 hrs
[8] = Stability of compound in PBS incubated for 3 to 24 hrs assessed as radiochemical purity (RCP) relative to control; assay type: physicochemical; conditions: buffer; time 3-24 hrs
Albumin [9] = target: T1, Albumin (Homo sapiens, UniProt P02768); assay: Binding affinity to human serum albumin assessed as binding rate incubated for 30 min relative to control; assay type: ADME; conditions: isolated protein, 0.5 h
T1 sequence (P02768 whole entry): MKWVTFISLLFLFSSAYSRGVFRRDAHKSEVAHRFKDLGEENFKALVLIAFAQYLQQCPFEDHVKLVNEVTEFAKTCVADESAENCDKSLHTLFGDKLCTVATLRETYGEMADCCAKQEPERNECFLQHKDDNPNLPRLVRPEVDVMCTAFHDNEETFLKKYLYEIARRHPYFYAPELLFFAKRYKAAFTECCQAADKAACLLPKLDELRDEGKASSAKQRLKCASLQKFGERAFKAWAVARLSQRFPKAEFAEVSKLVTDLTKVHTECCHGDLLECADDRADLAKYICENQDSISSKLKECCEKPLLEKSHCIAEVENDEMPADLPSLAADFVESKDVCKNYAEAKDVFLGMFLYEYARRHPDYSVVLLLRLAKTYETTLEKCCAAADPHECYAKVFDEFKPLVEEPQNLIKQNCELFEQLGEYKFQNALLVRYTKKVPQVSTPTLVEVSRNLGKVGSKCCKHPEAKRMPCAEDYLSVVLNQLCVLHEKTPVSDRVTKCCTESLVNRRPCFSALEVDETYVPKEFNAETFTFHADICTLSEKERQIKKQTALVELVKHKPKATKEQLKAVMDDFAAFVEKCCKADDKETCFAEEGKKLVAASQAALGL

Albumin [10] = target: T1, Albumin; assay: Binding affinity to human serum albumin assessed as decrease in HAS binding incubated for 30 mins under warfarin blocking relative to control; assay type: ADME; design: scale not given: the % may be the effect or the level left; conditions: isolated protein, 0.5 h
Albumin [11] = target: T1, Albumin; assay: Binding affinity to human serum albumin assessed as decrease in HAS binding incubated for 30 mins under ibuprofen relative to control; assay type: ADME; design: scale not given: the % may be the effect or the level left; conditions: isolated protein, 0.5 h
[12] = Drug uptake in human FAPalpha-positive U-87 MG cells incubated for 30 to 120 min by gamma counter analysis relative to control; assay type: ADME, cell-based; conditions: u-87mg atcc, time 30-120 min
[13] = Drug uptake in human U-87 MG cells incubated for 120 min under FAPI-04 monomer blocking condition by gamma counter analysis relative to control; assay type: ADME, cell-based; conditions: u-87mg atcc, 2 h
U-87 MG [14] = assay: Antiproliferative activity against human U-87 MG cells assessed as inhibition of cell viability at 18.5 KBq incubated for 12 hrs followed by replacement with fresh media and measured after 24 hrs by CCK-8 method relative to control; assay type: functional, U-87MG ATCC
U-87 MG [15] = assay: Antiproliferative activity against human U-87 MG cells assessed as inhibition of cell viability at 148 KBq incubated for 12 hrs followed by replacement with fresh media and measured after 24 hrs by CCK-8 method relative to control; assay type: functional, U-87MG ATCC
U-87 MG [16] = assay: Antitumor activity against human U-87 MG cells xenografted in female BALB/c nude mouse model assessed as tumor growth inhibition at 0.37 MBq, iv measured after 8 days postinjection relative to control; assay type: functional, U-87MG ATCC; conditions: time 8 day
U-87 MG [17] = assay: Antitumor activity against human U-87 MG cells xenografted in female BALB/c nude mouse model assessed as tumor growth inhibition at 0.74 MBq, iv measured after 8 days postinjection relative to control; assay type: functional, U-87MG ATCC; conditions: time 8 day
U-87 MG [18] = assay: Antitumor activity against human U-87 MG cells xenografted in female BALB/c nude mouse model assessed as tumor growth inhibition at 1.11 MBq, iv measured after 8 days postinjection relative to control; assay type: functional, U-87MG ATCC; conditions: time 8 day
U-87 MG [19] = assay: Antitumor activity against human U-87 MG cells xenografted in female BALB/c nude mouse model assessed as tumor growth inhibition at 0.37 MBq, iv measured after 36 days postinjection relative to control; assay type: functional, U-87MG ATCC; conditions: time 36 day
U-87 MG [20] = assay: Antitumor activity against human U-87 MG cells xenografted in female BALB/c nude mouse model assessed as tumor growth inhibition at 0.74 MBq, iv measured after 36 days postinjection relative to control; assay type: functional, U-87MG ATCC; conditions: time 36 day
[21] = Toxicity in female BALB/c nude mouse model assessed as animal death at 0.74 MBq, iv measured after 38 days; assay type: organism-based; conditions: in vivo, 912 h, time 38 day
[22] = Toxicity in female BALB/c nude mouse model assessed as animal death at 1.11 MBq, iv measured after 10 days; assay type: organism-based; conditions: in vivo, 240 h, time 10 day
[23] = Toxicity in female BALB/c nude mouse model assessed as body weight loss measured at 0.74 to 1.11 MBq, iv after 40 days of postinjection; assay type: organism-based; conditions: in vivo, 960 h, dose 0.74-1.11 MBq, time 40 day
[24] = Toxicity in female BALB/c nude mouse assessed as red blood cell count at 0.37 to 1.11 MBq, iv measured after 7 days of postinjection by blood analysis; assay type: organism-based; conditions: in vivo, 168 h, dose 0.37-1.11 MBq, time 7 day
[25] = Toxicity in female BALB/c nude mouse assessed as effect on liver at 0.37 to 1.11 MBq, iv measured after 7 days of postinjection by H and E staining based analysis; assay type: organism-based; conditions: in vivo, 168 h, dose 0.37-1.11 MBq, time 7 day
[26] = Toxicity in female BALB/c nude mouse assessed as hemoglobin indices at 0.37 to 1.11 MBq, iv measured after 7 days of postinjection by blood analysis; assay type: organism-based; conditions: in vivo, 168 h, dose 0.37-1.11 MBq, time 7 day
[27] = Toxicity in female BALB/c nude mouse assessed as decrease platelet count at 0.37 to 1.11 MBq, iv measured after 7 days of postinjection by blood analysis; assay type: organism-based; conditions: in vivo, 168 h, dose 0.37-1.11 MBq, time 7 day
[28] = Toxicity in female BALB/c nude mouse assessed as effect on lung at 0.37 to 1.11 MBq, iv measured after 7 days of postinjection by H and E staining based analysis; assay type: organism-based; conditions: in vivo, 168 h, dose 0.37-1.11 MBq, time 7 day
[29] = Toxicity in female BALB/c nude mouse assessed as effect on kidney at 0.37 to 1.11 MBq, iv measured after 7 days of postinjection by H and E staining based analysis; assay type: organism-based; conditions: in vivo, 168 h, dose 0.37-1.11 MBq, time 7 day
[30] = Toxicity in female BALB/c nude mouse assessed as effect on stomach at 0.37 to 1.11 MBq, iv measured after 7 days of postinjection by H and E staining based analysis; assay type: organism-based; conditions: in vivo, 168 h, dose 0.37-1.11 MBq, time 7 day
[31] = Toxicity in female BALB/c nude mouse assessed as thyroid gland damage at 1.11 MBq, iv measured after 7 days of postinjection by H and E staining based analysis; assay type: organism-based; conditions: in vivo, 168 h, time 7 day
U-87 MG [32] = assay: Antitumor activity against human U-87 MG cells assessed as inhibition of cell proliferation by measuring reduction in number of Ki67 positive cells at 1.11 MBq, iv administered for 7 days by immunohistochemical analysis; assay type: functional, organism-based; conditions: U-87MG ATCC, time 7.0 day, tested as the 211At-labelled form
U-87 MG [33] = assay: Antitumor activity against human U-87 MG cells assessed as induction of apoptosis in tumor tissue at 1.11 MBq, iv by TUNEL analysis; assay type: functional, organism-based; conditions: U-87MG ATCC, tested as the 211At-labelled form
U-87 MG [34] = assay: Antitumor activity against human U-87 MG cells xenografted in female BALB/c nude mouse model assessed as increase in survival time at 0.74 to 1.11 MBq, iv measured upto 70 days postinjection; assay type: functional, organism-based; conditions: U-87MG ATCC, dose 0.74-1.11 MBq, time <= 70.0 day, tested as the 211At-labelled form

`[211AtH]` showed a Drug uptake [1] of 2.75% and a Drug uptake [2] of 11.22%.

`N#C[C@@H]1CC(F)(F)CN1C(=O)CNC(=O)c1ccnc2ccc(OCCCN3CCN(C(=O)c4ccc([131I])cc4)CC3)cc12` showed a logP [3] of 2.12.

Work on `N#C[C@@H]1CC(F)(F)CN1C(=O)CNC(=O)c1ccnc2ccc(OCCCN3CCN(C(=O)c4ccc([211At])cc4)CC3)cc12` yielded a logP [3] of 1.96 and a Stability [4] of 71%.

For `N#C[C@@H]1CC(F)(F)CN1C(=O)CNC(=O)c1ccnc2ccc(OCCCN3CCN(C(=O)CCCc4ccc([131I])cc4)CC3)cc12`, the logP [3] was 2.43, the Drug uptake [5] was 3.71% and the Drug uptake [6] was 7.77%.

`N#C[C@@H]1CC(F)(F)CN1C(=O)CNC(=O)c1ccnc2ccc(OCCCN3CCN(C(=O)CCCc4ccc([211At])cc4)CC3)cc12` showed a Stability [7] of 91.4%, a Stability [8] of 88.17% and an Activity (Albumin [9]) of 7.63%. The logP [3] was 2.37, the Activity (Albumin [10]) was 3.54% and the Activity (Albumin [11]) was 4.01%. For the same compound, the Drug uptake [5] was 2.06%, the Drug uptake [12] was 40.8% and the Drug uptake [13] was 12.86%. For the same compound, the “inhibition (INH)” value (U-87 MG [14]) was 70.95%, the “inhibition (INH)” value (U-87 MG [15]) was 48.58% and the TGI (U-87 MG [16]) was 84.98%. It also gave a TGI (U-87 MG [17]) of 92.28%, a TGI (U-87 MG [18]) of 94.99% and a TGI (U-87 MG [19]) of 10.46%. For the same compound, the TGI (U-87 MG [20]) was 4.2%, the Activity [21] was “Toxic” and the Activity [22] was “Toxic”. For the same compound, the Activity [23] was “Non-toxic”, the Activity [24] was “Non-toxic” and the Activity [25] was “Non-toxic”. The Activity [26] was “Non-toxic”, the Activity [27] was “Toxic” and the Activity [28] was “Non-toxic”. The Activity [29] was “Non-toxic”, the Activity [30] was “Non-toxic” and the Activity [31] was “Toxic”.

For `N#C[C@@H]1CC(F)(F)CN1C(=O)CNC(=O)c1ccnc2ccc(OCCCN3CCN(C(=O)CCCc4ccc([At])cc4)CC3)cc12`, the Activity (U-87 MG [32]) was “Active”, the Activity (U-87 MG [33]) was “Active” and the Activity (U-87 MG [34]) was “Active”.
